Experiment [1] deals with Aβ plaques in AD brain. Particulars: cited from earlier work.
Experiment [2] has as its target T1, Human PD brain homogenate (insoluble fraction) (Homo sapiens, UniProt P37840). The settings on record: read-out: Ki, Human PD brain homogenate; 200 nM [125I]SIL23, 10 µg insoluble fraction/150 µl; 95% confidence interval in parentheses.
Protocol: (§2) Reactions were incubated at 37°C for 2 h before quantifying bound radioligand as described above for the saturation binding assay. All data points were performed in triplicate.
In experiment [3] the target is T2, recombinant α-syn fibrils (Homo sapiens, UniProt P37840). Particulars: read-out: Ki, α-Syn fibrils; 200 nM [125I]SIL23, 1 µM fibrils; Ki from EC50; 95% confidence interval in parentheses.
Protocol: (§3) Purified recombinant α-syn monomer (2 mg/ml) was incubated in 20 mM Tris-HCl, pH 8.0, 100 mM NaCl for 72 h at 37°C with shaking at 1000 rpm in an Eppendorf Thermomixer. To determine the concentration of fibrils, the fibril reaction mix was centrifuged at 15,000×g for 15 min to separate fibrils from monomer. The concentration of α-syn monomer in the supernatant was determined in a BCA protein assay according to the manufacturer’s instructions, using a bovine serum albumin (BSA) standard curve. The measured decrease in α-syn monomer concentration was used to determine the concentration of fibrils in the 72 h fibril reaction mixture.
(§4) The prepared fibril mixture was centrifuged at 15,000×g for 15 min to prepare fibrils for binding assays.
as §2
The test system of another experiment is PD tissue. Also on record: method as in PMID 19576880. Particulars: cited from earlier work.
Experiment [4] concerns the target T3, recombinant tau fibrils (Homo sapiens, UniProt P10636). Briefly: biochemical.
Protocol: (§5) To determine the concentration of fibrils, the fibril reaction mixer was centrifuged at 15,000×g for 15 min to separate fibrils from monomer. The concentration of tau monomer in the supernatant was determined in a BCA protein assay along with a BSA standard curve. The measured decrease in monomer concentration was used to determine the concentration of tau fibrils in the 48 h fibril reaction mixture.
as §4, §2
Experiment [5] deals with T4, synthetic Aβ1–42 fibrils (Homo sapiens, UniProt P05067). Briefly: biochemical.
T4 sequence (P05067 672-713 limits assumed): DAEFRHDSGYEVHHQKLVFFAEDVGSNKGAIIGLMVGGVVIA
Protocol: (§6) Synthetic Aβ1–42 peptide (1 mg) (Bachem, Torrance, CA) was first dissolved in 50 µl DMSO. An additional 925 µl of mQ-H2O was added. […] The dissolved peptide was incubated for 30 h at 37°C with shaking at 1000 rpm in an Eppendorf Thermomixer. […] To determine the concentration of fibrils, the fibril reaction mix was centrifuged at 15,000×g for 15 min to separate fibrils from monomer. The concentration of Aβ monomer in the supernatant was determined in a BCA protein assay using a BSA standard curve that contained DMSO at a percentage equivalent to the samples.
as §4
Reactions were incubated at 37°C for 2 h before quantifying bound radioligand as described above for the saturation binding assay.
Experiment [6] has as its system crude PBS homogenate from control human brain. The experiment is described as follows: [125I]SIL23 saturation binding to crude control brain homogenate. The settings on record: unfractionated PBS homogenate. The method, then:
(§1) All data points were performed in triplicate.

Experiment [7] deals with T3, recombinant tau fibrils.
Protocol: as §5, §4
Experiment [8] has as its system insoluble fractions from control human brain tissue. Briefly: [125I]SIL23 saturation binding to insoluble fractions of control brain tissue. The settings on record: four control cases, listed as [^125I]SIL23. The method, then: Brain tissue samples were selected from an autopsy case series of patients evaluated for parkinsonism by movement disorders specialists at the Movement Disorders Center of Washington University School of Medicine in St. Louis. The clinical diagnosis of idiopathic PD was based on modified United Kingdom Parkinson’s Disease Society Brain Bank clinical diagnostic criteria with clear clinical response to levodopa. Dementia was determined by a movement disorders specialist based on clinical assessment of cognitive dysfunction sufficiently severe to impair activities of daily living, with further evaluation of cognitive impairment using the AD8 [20] and Mini-Mental Status Exam (MMSE). LB stage was assessed at autopsy using a PD staging scale (range: 0, 1–6). PD cases were selected based on a clinical diagnosis of PD plus dementia, Braak LB stage 5–6 pathology, and the absence of significant Aβ or tau pathology determined by immunohistochemistry. Control cases were selected based on the absence of α-syn, Aβ and tau pathology. Samples were used from both male and female subjects.
as §1

Experiment [9] deals with T4, synthetic Aβ1–42 fibrils.
Protocol: as §6, §4
The subject of experiment [10] is Aβ plaques in AD brain. The arrangement: method as in PMID 16291932. Particulars: cited from earlier work.
For experiment [11], the target named is T2, recombinant α-syn fibrils. Briefly: biochemical.
Protocol: as §3, §4, §2
Experiment [12] concerns the target T1, Human PD brain homogenate (insoluble fraction). Briefly: biochemical.
Protocol: as §2

Data on 8 compounds can be found in publication PMC3566091, “Binding of the Radioligand SIL23 to α-Synuclein Fibrils in Parkinson Disease Brain Tissue Establishes Feasibility and Screening Approaches for Developing a Parkinson Disease Imaging Agent” (PLoS ONE, 2013).

Where two headings read alike, the source gives them in different places.

T3 sequence (P10636 560-692): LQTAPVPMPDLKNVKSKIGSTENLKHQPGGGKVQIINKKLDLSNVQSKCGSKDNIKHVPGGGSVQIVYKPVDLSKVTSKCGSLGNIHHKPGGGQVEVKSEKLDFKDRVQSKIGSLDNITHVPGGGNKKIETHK

As a reminder, the Kd is the equilibrium constant for the complex coming apart. On to `CNc1ccc(/C=C/c2ccc(OCCOCCOCCF)nc2)cc1` [AV-45], for which the “average Bmax (binding site density) for AV-45 binding in AD brain” value in the experiment on Aβ plaques in AD brain [1] (AD brain) is recorded as 8.8 pmol/mg protein. The Kd at Aβ plaques in AD brain [1] (read-out: Kd for AV-45 binding to Aβ plaques) is 3.7 nM.

In general, Ki refers to the dissociation constant of the complex between target and ligand, obtained from inhibition or displacement. For `CN(C)c1ncc(/C=C/c2nc3ccc(OCCF)cc3o2)s1` [BF227], the Ki was found to be 138 nM in experiment [2] and 39.7 nM in experiment [3]. The “radiolabeled BF227 binding in PD tissue” value in the experiment with PD tissue is reported as “not detectable”.

On to `O=[N+]([O-])c1ccc2c(c1)Sc1ccccc1N2` [SIL3B], for which the inhibition constant Ki on recombinant tau fibrils [4] came out at 52.3 nM; on synthetic Aβ1–42 fibrils [5], 71.5 nM.

With `O=[N+]([O-])c1ccc2c(c1)Sc1cc(OC/C=C/I)ccc1N2` [SIL23], the “[125I]SIL23 binding in crude homogenate of a control case” value in experiment [6] is “no significant binding”; in [6] (listed as [^125I]SIL23), “No significant specific binding”. Also, on recombinant tau fibrils [7], the “Bmax of [125I]SIL23 binding to tau fibrils” value was 4.57 pmol/nmol. For the same compound, the “[125I]SIL23 binding in control cases” value in [8] was “no significant [^125I]SIL23 binding”. The “Bmax of [125I]SIL23 binding to Aβ1–42 fibrils” value at synthetic Aβ1–42 fibrils [9] was determined as 23.7 pmol/nmol.

Turning to `O=[N+]([O-])c1ccc2c(c1)Sc1cc(Br)ccc1N2` [SIL22], the Ki at recombinant tau fibrils [4] is 173 nM; at synthetic Aβ1–42 fibrils [5] it was 102 nM.

`COc1ccc2c(c1)Sc1cc([N+](=O)[O-])ccc1N2` [SIL5] came in with a Ki at synthetic Aβ1–42 fibrils [5] of 110 nM.

For the compound `CNc1ccc(-c2nc3ccc(O)cc3s2)cc1` [PiB, Pittsburgh Compound B], the “average Bmax (binding site density) for PiB binding in AD brain” value in the experiment with Aβ plaques in AD brain [10] (AD brain) is 1407 pmol/g wet weight. Moreover, the Kd on Aβ plaques in AD brain [10] (read-out: Kd for PiB binding to Aβ plaques) is 2.5 nM. Besides, the Ki in experiment [11] amounted to 116 nM; in experiment [12] it was 99.2 nM.

Consider `O=C(O)c1cc(/N=N/c2ccc(-c3ccc(/N=N/c4ccc(O)c(C(=O)O)c4)cc3)cc2)ccc1O` [Chrysamine G], for which the Ki in [11] is 432 nM; in experiment [12] it was 367 nM.
